Assay in all cases: ≥ marks a high value that may be exact or a test limit, other limits are often not marked, values filed in µg/mL are converted to µM
Assay [1] relates to Acinetobacter baumannii ATCC 19606.
For assay [2], the system named is Candida albicans ATCC 90028.
Assay [3] deals with Cryptococcus neoformans var. grubii H99.
Assay [4] concerns Escherichia coli ATCC 25922.
Assay [5] relates to Escherichia coli K-12.
Assay [6] concerns Klebsiella pneumoniae ATCC 700603.
Assay [7] deals with Pseudomonas aeruginosa ATCC 27853.
The subject of assay [8] is Staphylococcus aureus ATCC 43300.
Assay [9] concerns Staphylococcus aureus JE2.
The subject of assay [10] is Candida albicans CGMCC 2.2086.
Assay [11] has as its system Candida parapsilosis CGMCC 2.3989.
Assay [12] concerns Candida tropicalis CGMCC 2.1975.
The test system of assay [13] is Lacticaseibacillus rhamnosus 7469.
Assay [14] concerns Lactiplantibacillus plantarum 8014.
In assay [15] the test system is Staphylococcus aureus ATCC 25923.
Assay [16] deals with Staphylococcus aureus ATCC 29213.
The test system of assay [17] is Staphylococcus epidermidis ATCC 12228.
The subject of assay [18] is Batrachochytrium dendrobatidis.
Assay [19] relates to Bacillus cereus ATCC 11778.
Assay [20] concerns Bacillus thuringiensis ATCC 10792.
In assay [21] the test system is Enterococcus faecium CCT 5079.
Assay [22] concerns Enterococcus hirae ATCC 10541.
For assay [23], the system named is Escherichia coli ATCC 11775.
The subject of assay [24] is Escherichia coli CCT 1457.
In assay [25] the test system is Micrococcus luteus ATCC 4698.
Assay [26] concerns Pseudomonas aeruginosa ATCC 13388.
Assay [27] deals with Pseudomonas aeruginosa ATCC 15422.
Assay [28] concerns Salmonella enterica subsp. enterica serovar Choleraesuis ATCC 10708.
Assay [29] concerns Salmonella enterica subsp. enterica serovar Typhimurium ATCC 14028.
The subject of assay [30] is Staphylococcus aureus CCT 2580.
Assay [31] relates to Staphylococcus aureus CCT 6538.
Assay [32] relates to Streptococcus mutans AU159.
Assay [33] deals with Streptococcus pneumoniae ATCC 11733.
Assay [34] relates to Escherichia coli DH5alpha.
Assay [35] relates to Pseudomonas aeruginosa NBRC 13275.
For assay [36], the system named is Staphylococcus aureus NBRC 13276.

≈ marks a conversion by molar mass, not a printed value.

`CC[C@H](C)[C@H](NC(=O)[C@@H](NC(=O)[C@H](CO)NC(=O)[C@H](C)NC(=O)[C@@H](NC(=O)[C@H](CCCCN)NC(=O)[C@H](CCCN=C(N)N)NC(=O)[C@@H](NC(=O)[C@@H](NC(=O)[C@H](CCCN=C(N)N)NC(=O)[C@H](Cc1c[nH]c2ccccc12)NC(=O)[C@H](CC(C)C)NC(=O)CN)C(C)C)[C@@H](C)CC)C(C)C)C(C)C)C(=O)NCC(=O)NCC(=O)N[C@@H](CC(C)C)C(=O)O` [GLWRVIRKVASVIGGL]: the MIC – broadly, the least concentration at which growth counts as inhibited – in assay [1] was found to be 1.16 µM (≈ 2 µg/mL); in assay [2], 18.6 µM (≈ 32 µg/mL); in [3], 1.16 µM (≈ 2 µg/mL); in assay [4], 2.32 µM (≈ 4 µg/mL); in [5], 18.6 µM (≈ 32 µg/mL); in [6], 4.64 µM (≈ 8 µg/mL). The results for the MIC in [7], in assay [8] and in assay [9] were more than 18.6 µM, 2.32 µM (≈ 4 µg/mL) and 9.28 µM (≈ 16 µg/mL), respectively.
As to `CC[C@H](C)[C@H](N)C(=O)N[C@@H](Cc1cnc[nH]1)C(=O)N[C@@H](Cc1cnc[nH]1)C(=O)N[C@H](C(=O)N[C@@H](Cc1cnc[nH]1)C(=O)N[C@@H](Cc1cnc[nH]1)C(=O)N[C@H](C(=O)N[C@H](C(=O)N[C@@H](Cc1cnc[nH]1)C(=O)N[C@@H](Cc1cnc[nH]1)C(=O)N[C@H](C(=O)N[C@@H](Cc1cnc[nH]1)C(=O)N[C@@H](Cc1cnc[nH]1)C(=O)N[C@H](C(=O)N[C@H](C(=O)N[C@@H](Cc1cnc[nH]1)C(=O)N[C@@H](Cc1cnc[nH]1)C(=O)N[C@H](C(=O)N[C@@H](Cc1cnc[nH]1)C(=O)N[C@@H](Cc1cnc[nH]1)C(=O)N[C@H](C(N)=O)[C@@H](C)CC)[C@@H](C)CC)[C@@H](C)CC)[C@@H](C)CC)[C@@H](C)CC)[C@@H](C)CC)[C@@H](C)CC)[C@@H](C)CC` [IHHIHHIIHHIHHIIHHIHHI], the MIC in assay [10] is 2 µM (≈ 5.36 µg/mL); in assay [11] it was 2 µM (≈ 5.36 µg/mL); in [12] it was 1 µM (≈ 2.68 µg/mL); in [13], not below 64 µM; in [14], not below 64 µM; in [15], more than 64 µM. The MIC in assay [16] and in assay [17] was more than 64 µM each time.
In assay [18], `CC[C@H](C)[C@H](NC(=O)[C@H](CC(C)C)NC(=O)[C@@H]1CCCN1C(=O)[C@H](CC(C)C)NC(=O)[C@H](CCCCN)NC(=O)[C@H](CCCCN)NC(=O)[C@H](Cc1ccccc1)NC(=O)[C@H](CC(C)C)NC(=O)[C@H](CCCCN)NC(=O)[C@H](Cc1c[nH]c2ccccc12)NC(=O)[C@@H](N)CCCCN)C(=O)NCC(=O)N[C@@H](CCCN=C(N)N)C(=O)N[C@H](C(=O)N[C@@H](CC(C)C)C(N)=O)C(C)C` [KWKLFKKLPLIGRVL] registered an MIC not below 100 µM.
With `CC(C)C[C@H](NC(=O)CN)C(=O)N[C@@H](CC(C)C)C(=O)N[C@@H](C)C(=O)N[C@@H](CO)C(=O)N[C@@H](CC(C)C)C(=O)NCC(=O)N[C@@H](CCCCN)C(=O)N[C@H](C(=O)N[C@@H](Cc1ccccc1)C(=O)NCC(=O)NCC(=O)N[C@@H](Cc1ccc(O)cc1)C(=O)N[C@@H](CC(C)C)C(=O)N[C@@H](C)C(=O)N[C@@H](CCC(=O)O)C(=O)N[C@@H](CCCCN)C(=O)N[C@@H](CC(C)C)C(=O)N[C@@H](CCCCN)C(=O)N1CCC[C@H]1C(=O)N[C@@H](CCCCN)C(=O)O)C(C)C` [GLLASLGKVFGGYLAEKLKPK], in assay [18], the MIC is not below 200 µM.
`CC[C@H](C)[C@H](N)C(=O)N[C@@H](CC(N)=O)C(=O)N[C@@H](Cc1c[nH]c2ccccc12)C(=O)N[C@@H](CC(C)C)C(=O)N[C@@H](CCCCN)C(=O)N[C@H](C(=O)N[C@@H](CCCCN)C(=O)N[C@@H](CCCCN)C(=O)N[C@@H](CCCCN)C(=O)N[C@H](C(=O)N[C@@H](C)C(=O)NCC(=O)N[C@@H](CCSC)C(=O)N[C@@H](CC(C)C)C(N)=O)C(C)C)[C@@H](C)CC` [INWLKIKKKVAGML]: the MIC is not below 152 µM in assay [19]; not below 76.1 µM in assay [20]; not below 38.1 µM in [2]; 4.87 µM (≈ 8 µg/mL) in assay [21]; 18.9 µM (≈ 31 µg/mL) in [22]; 18.9 µM (≈ 31 µg/mL) in [23]. Further, the MIC in assay [4] is 18.9 µM (≈ 31 µg/mL); in [24], 4.87 µM (≈ 8 µg/mL); in assay [25], 2.44 µM (≈ 4 µg/mL); in assay [26] it was not below 152 µM; in assay [27], not below 76.1 µM; in assay [28] it was not below 304 µM. Further, the MIC in assay [29] amounted to 18.9 µM (≈ 31 µg/mL); in assay [15] it was 1.22 µM (≈ 2 µg/mL); in [30], 4.87 µM (≈ 8 µg/mL); in assay [31], 18.9 µM (≈ 31 µg/mL); in assay [17], 2.44 µM (≈ 4 µg/mL); in [32], 2.44 µM (≈ 4 µg/mL). In assay [33], this compound gave an MIC of 1.22 µM (≈ 2 µg/mL).
With `CC(=O)N[C@@H](C)C(=O)N[C@@H](CCCCN)C(=O)N[C@@H](CCCCN)C(=O)N[C@@H](Cc1ccccc1)C(=O)NCC(=O)N[C@@H](CCCCN)C(=O)N[C@@H](C)C(=O)N[C@@H](Cc1ccccc1)C(=O)N[C@H](C(N)=O)C(C)C` [AKKFGKAFV], the MIC in assay [34] was not below 200 µM; in assay [35], not below 200 µM; in [36], not below 400 µM.
Take `CC[C@H](C)[C@H](NC(=O)[C@@H](NC(=O)[C@H](CO)NC(=O)[C@H](C)NC(=O)[C@@H](NC(=O)[C@H](CCCCN)NC(=O)[C@H](CCCCN)NC(=O)[C@@H](NC(=O)[C@@H](NC(=O)[C@H](CC(=O)O)NC(=O)[C@H](Cc1c[nH]c2ccccc12)NC(=O)[C@H](CC(C)C)NC(=O)CN)C(C)C)[C@@H](C)CC)C(C)C)C(C)C)C(=O)NCC(=O)NCC(=O)N[C@@H](CC(C)C)C(=O)O` [GLWDVIKKVASVIGGL]: the MIC in assay [1] is 9.67 µM (≈ 16 µg/mL); in [2], 19.3 µM (≈ 32 µg/mL); in [3], 4.83 µM (≈ 8 µg/mL); in assay [4], more than 19.3 µM; in assay [5], 9.67 µM (≈ 16 µg/mL); in assay [6] it was more than 19.3 µM. For the same compound, the MIC in assay [7] was more than 19.3 µM; in [8], 2.42 µM (≈ 4 µg/mL); in assay [9] it was 4.83 µM (≈ 8 µg/mL).

Values taken from DBAASP.
